Reference: article PMC8148468, “Shikimic acid protects skin cells from UV-induced senescence through activation of the NAD+-dependent deacetylase SIRT1” (Aging (Albany NY), 2021)

Columns and labels:
[1] = system: UVB-irradiated human dermal fibroblasts (HDFs); test: UVB-induced senescence assay: SA-β-Gal staining; assay type: cell-based; conditions: UVB-irradiated HDF
Procedure: In the second approach, we established a method for inducing senescence in these cells with 2 cycles of UVB irradiation 72h apart (Figure 2A). The use of UVA to induce senescence was discarded due to its considerably longer time requirement, being unsuitable to screen 30 compounds within a reasonable period. Cells were treated with these compounds throughout the duration of the assay and cellular senescence was monitored with two markers: accumulation of SA-β-galactosidase (SA-β-Gal) activity, and the decrease in expression of HAS2 (hyaluronic acid synthase 2), a previously reported marker of skin senescence.
Figure 2 (A) Schematic representation of the protocol for senescence induction using UVB irradiation. Cells were treated -/+ the compounds from day 1 to 7 after seeding, irradiated with UVB on days 2 and 5 and harvested for analysis on day 7. […] (C) Phase-contrast (left column) and bright field (right column) microscope images of SA-β-Gal staining showing non-irradiated cells, UVB-irradiated cells non-treated and treated with Gallic acid or Shikimic acid at the indicated concentrations. (D) Percentage of SA-β-Gal positive cells and (E) Relative HAS2 mRNA levels in non-irradiated cells, UVB-irradiated cells and UVB-irradiated cells treated with Gallic acid or Shikimic acid at the indicated concentrations. Student T-test, *p<0.05, **p<0.01, ***p<0.001.
The protocol for senescence induction using UVB irradiation is described in the Supplementary Methods. SA-β-Gal staining, WST-1, sulforhodamine B (SRB) and trypan blue assays were performed as previously described. For the siRNA experiments, the protocol for senescence induction using UVB irradiation was the same as in the Supplementary Methods. Specific siRNA (Horizon discovery, UK) for SIRT1, SIRT2, SIRT6, BiP or scramble siRNA were incubated for 6 hours before each irradiation step.
Senescence induction by UVB irradiation For the non-irradiation control conditions, HDF were […]
After 24h, culture medium was removed and well plates. After 24h, culture medium was removed replaced by fresh cell culture medium containing the and replaced with fresh cell culture medium containing compounds at different concentrations. After 24h, the compounds at different concentrations. […]
cell culture medium was removed, and cells were cells/plate in fresh cell culture medium containing the irradiated at 25 mJ/cm2 of UVB light (312 nm) in a Bio- compound in 6-well plates. After 3 days, cells were […]
amount of PBS. PBS was then removed and fresh cell fresh cell culture medium containing the compound in culture medium with the compound was added to each 6-well plates. After 2 days, cells were processed well. After 3 days, cells were irradiated again under the according to the qPCR, β-Gal staining, apoptosis, cell same conditions. After 2 days, cells were processed cycle or immunofluorescence protocols. according to the qPCR, β-Gal staining, apoptosis, cell cycle or immunofluorescence protocols.

[2] = system: HDF cells (misfolded proteins); test: FTIRM analysis, beta-sheet to alpha-helix ratio; assay type: cell-based, human; conditions: UVB-irradiated cells, SA 25 mM -/+ EX-527 1 μM
Procedure: Figure 4 (A) SRB and Trypan blue cell viability assays performed in cells treated with or without Shikimic acid (5, 10, 25 and 50 mM) for 24h. (B) Apoptosis detection using the Annexin V-FITC/PI double staining followed by flow cytometry in non-irradiated and non-treated cells, irradiated and non-treated cells and irradiated cells treated with Shikimic acid (10, 25 and 50 mM). (C) Representation and statistical analysis of the percentage of apoptotic cells in each of the conditions analyzed. (D) Cell cycle analysis using PI staining followed by flow cytometry. (E) Relative p16^INK4a mRNA levels monitored by qPCR in the indicated conditions. Student T-test, *p<0.05. (F) Immunofluorescence of γH2AX in non-irradiated and non-treated cells, irradiated and non-treated cells and irradiated cells treated with Shikimic acid (10, 25 and 50 mM). […]
FTIRM measurements were performed at the MIRAS beamline of ALBA Synchrotron using the internal (Globar®) source. […] The structure content of the amide I peak (1710-1598 cm−1) was determined by band deconvolution using Gaussian band fitting profiles (Origin 7.0 software). The position and number of peaks, which were assigned to specific types of secondary structures, were determined using the second derivative of the spectra.

LC3-II = LC3-II protein levels (Western blot); assay type: cell-based, human; conditions: UVB-irradiated cells, SA -/+ EX-527 1 μM (reversion at SA 10mM)
Procedure: Figure 5 (A) Western-blot of BiP proteins levels in UVB or non UVB irradiated cells treated with SA at the indicated concentrations in presence or absence of EX-527 1 μM. (B) Quantification of n=3 experiments as (A). The levels of BiP are normalized by the loading control (histone H3) and represented related to the conditions in UVB irradiated cells in absence of SA and EX-527. Student T-test, *p<0.05. (C) Percentage of SA-β-Gal in assays performed as in Figure 3C. (D) Levels of spliced and unspliced XBP1 mRNA monitored by qPCR analysis in cells treated in the indicated conditions in presence or absence of SA and/or EX-527. The levels were normalized by internal controls and represented in each case related to the conditions in UVB irradiated cells in absence of SA and EX-527. Student T-test, *p<0.05, **p<0.01, ***p<0.001. (E) LC3-II protein levels in experiments like in (A). The levels of LC3-II are normalized by the loading control (tubulin) and represented related to the conditions in UVB irradiated cells in absence of SA and EX-527. Student T-test, *p<0.05. (F) Proposed Model for the effect of SA on senescence through SIRT1. Other possible unexplored connections between SA and senescence are indicated by blue broken lines.
Protein levels were analyzed as previously described. Cells were directly lysed in 1x Laemmli Buffer (Bio-Rad, USA), incubated at 95° C and centrifuged. […]

O=C(O)C1=C[C@@H](O)[C@@H](O)[C@H](O)C1 [Shikimic acid]
SA-β-Gal accumulation/staining [1]: significant decrease in SA-β-Gal accumulation | prevention of UV-induced cellular senescence ([1]; SA-β-Gal and HAS2 markers): prevented the development of senescence | β-sheet/α-helix ratio (misfolded proteins) [2]: inhibited these levels well below the ratio observed in control cells | LC3-II protein levels (LC3-II): SA-dependent decrease in the levels of LC3-II
